The source of these data is patent US20240059671A1, “TYROSINE KINASE 2 (TYK2) DEGRADATION COMPOUNDS AND METHODS OF USE” (CULLGEN (SHANGHAI), INC., priority 2020, published 2024).

Type in all cases: cell-based
For experiment [1], the system named is JAK1, JAK2, and JAK3. The experiment is described as follows: Immunoblot of JAK1/2/3 protein levels in MOLT-4 cells (selectivity of TYK2 reduction). Conditions: MOLT-4 cells, 0.04, 0.2, 1, and 5 μM, 24 hours. Here is the method:
MOLT-4 cells were treated with CPD-038, CPD-039, and CPD-040 at 0.04, 0.2, 1, and 5 μM concentrations for 24 hours.
(§1) Rabbit anti-JAK1antibody (3344S), anti-JAK2 antibody (3230S), anti-JAK3 antibody (8827S), anti-TYK2 antibody (14193S), anti-STAT1 antibody (9167S), anti-STAT3 antibody (9139S), anti-phospho-STAT1 (Tyr701) antibody ([…]), anti-phospho-STAT3 (Tyr705) antibody (9145S), were purchased from Cell Signaling Technology; anti-β-actin antibody (ab8226) was from Abeam; HRP-conjugated anti-α-Tubulin (GNI4310-AT) antibody was purchased from GNI. Media and other cell culture reagents were purchased from Thermo Fisher.
(§2) Cultured cells were washed with cold PBS once and lysed in cold RIPA buffer supplemented with protease inhibitors and phosphatase inhibitors (Beyotime Biotechnology). The solutions were then incubated at 4° C. for 30 minutes with gentle agitation to fully lyse cells. Cell lysates were centrifuged at 13,000 rpm for 10 minutes at 4° C. and pellets were discarded. Total protein concentrations in the lysates were determined by BCA assays (Beyotime Biotechnology). Cell lysates were mixed with Laemmli loading buffer to 1× and heated at 99° C. for 5 min. Proteins were resolved on SDS-PAGE and visualized by chemiluminescence. Images were taken by a ChemiDoc MP Imaging system (Bio-Rad). Protein bands were quantitated using the accompanied software provided by Bio-Rad.
A general note: A western blot detects proteins with antibodies after separation by electrophoresis.

For experiment [2], the target named is T1, TYK2 (Homo sapiens, UniProt P29597). The experiment is described as follows: TYK2 protein degradation in MOLT-4 cells by immunoblotting. Conditions: 24 hours; for TYK2 Degradation (0.5 μM) / TYK2 Degradation (5 μM): MOLT-4 cells; for Reduction of TYK2 protein levels over a dose range (FIG. 1): MOLT-4 cells, 0.04, 0.2, 1, and 5 μM. Further details: endogenous in cells; host or cells: MOLT-4. An outline of the steps:
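Percent TYK2 degradation came from densitometry of chemiluminescent immunoblots of RIPA lysates. Before lysis, MOLT-4 cells had been treated for 24 h with each compound at 0.5 or 5 μM.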

Experiment [3] concerns phosphorylation of STAT1 (Tyr701) and STAT3 (Tyr705). The experiment is described as follows: IFNα-induced STAT1/3 phosphorylation in Jurkat cells by immunoblotting. Conditions: 3 or 30 nM, 16 hours, then IFNα (2000 IU) for 15 min. Here is the method: (§3) Jurkat cells were treated with DMSO or a dose range of heterobifunctional compounds CPD-155, CPD-158, and CPD-164 at 3 or 30 nM concentrations for 16 hours. Cells were subsequently treated with IFNα (2000 IU) for 15 min as indicated.
as §1, §2

In experiment [4] the target is T1, TYK2. Nature of the experiment: TYK2 protein degradation in NOMO-1 cells by immunoblotting. Further details: endogenous in cells. Conditions: for TYK2 Degradation (NOMO-1, 10 nM) / TYK2 Degradation (NOMO-1, 100 nM): NOMO-1 cells; for Reduction of TYK2 protein levels over a dose range (FIG. 2): NOMO-1 cells, 0.1, 1, 10, 100 and 1000 nM, 16 hours. An outline of the steps: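 Read-out was densitometry of chemiluminescent TYK2 immunoblot bands from RIPA lysates after SDS-PAGE. Before lysis, NOMO-1 cells cultured in RPMI 1640 plus 10% FBS were treated for 16 h at 0.1, 1, 10, 100 and 1000 nM.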

Experiment [5] has as its target T1, TYK2. The experiment is described as follows: TYK2 protein levels in Jurkat cells by immunoblotting. Conditions: 3 or 30 nM, 16 hours. Further details: endogenous in cells. Here is the method:
as §3, §2

Entries after “also recorded” stand apart in the source; their conditions may differ.

T1 sequence (P29597 whole entry): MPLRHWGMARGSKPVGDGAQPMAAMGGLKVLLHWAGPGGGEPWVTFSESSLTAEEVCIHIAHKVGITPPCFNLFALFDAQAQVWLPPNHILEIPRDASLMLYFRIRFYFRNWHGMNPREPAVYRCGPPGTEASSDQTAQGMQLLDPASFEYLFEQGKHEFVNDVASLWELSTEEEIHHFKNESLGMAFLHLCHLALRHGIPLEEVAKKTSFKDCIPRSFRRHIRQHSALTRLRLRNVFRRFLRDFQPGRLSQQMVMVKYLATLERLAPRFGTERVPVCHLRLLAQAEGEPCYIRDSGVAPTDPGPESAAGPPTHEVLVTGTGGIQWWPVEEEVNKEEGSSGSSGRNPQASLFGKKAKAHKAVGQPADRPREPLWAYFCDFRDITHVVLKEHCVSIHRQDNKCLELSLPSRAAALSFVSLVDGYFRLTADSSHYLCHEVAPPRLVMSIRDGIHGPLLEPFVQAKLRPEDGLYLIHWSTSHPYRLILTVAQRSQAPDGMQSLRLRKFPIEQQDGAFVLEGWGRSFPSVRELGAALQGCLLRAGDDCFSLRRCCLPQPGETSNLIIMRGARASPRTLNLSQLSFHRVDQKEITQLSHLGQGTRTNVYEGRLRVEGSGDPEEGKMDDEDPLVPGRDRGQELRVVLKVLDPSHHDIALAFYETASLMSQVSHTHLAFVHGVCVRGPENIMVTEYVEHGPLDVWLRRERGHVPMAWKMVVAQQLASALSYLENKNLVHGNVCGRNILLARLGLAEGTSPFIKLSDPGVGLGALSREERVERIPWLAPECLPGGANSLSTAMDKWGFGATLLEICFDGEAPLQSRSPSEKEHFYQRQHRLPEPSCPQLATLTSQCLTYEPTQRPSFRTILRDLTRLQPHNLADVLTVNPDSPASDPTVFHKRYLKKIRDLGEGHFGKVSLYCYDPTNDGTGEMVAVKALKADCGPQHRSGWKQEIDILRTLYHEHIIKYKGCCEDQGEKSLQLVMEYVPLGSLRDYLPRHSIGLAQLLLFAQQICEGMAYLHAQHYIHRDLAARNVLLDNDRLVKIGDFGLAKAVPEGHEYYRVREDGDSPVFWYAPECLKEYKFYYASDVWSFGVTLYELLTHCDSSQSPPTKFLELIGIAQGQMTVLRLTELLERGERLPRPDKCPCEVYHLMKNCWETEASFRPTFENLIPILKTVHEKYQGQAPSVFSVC

With `CNC(=O)c1nnc(NC(=O)CNC(=O)CCCCCCC(=O)N[C@H](C(=O)N2C[C@H](O)C[C@H]2C(=O)NCc2ccc(-c3scnc3C)cc2)C(C)(C)C)cc1Nc1cccc(-c2ncn(C)n2)c1OC` [CPD-038, N1-((S)-1-((2S,4R)-4-hydroxy-2-((4-(4-methylthiazol-5-yl)benzyl)carbamoyl)pyrrolidin-1-yl)-3,3-dimethyl-1-oxobutan-2-yl)-N8-(2-((5-((2-methoxy-3-(1-methyl-1H-1,2,4-triazol-3-yl)phenyl)amino)-6-(methylcarbamoyl)pyridazin-3-yl)amino)-2-oxoethyl)octanediamide], the “Selectivity of TYK2 protein reduction over JAK1, JAK2, and JAK3 (FIG. 1)” value (from here on “Selectivity of TYK2 protein reduction”) in experiment [1] was “very selective at the reduction protein levels of TYK2 over JAK1, JAK2, and JAK3; also recorded: highly selective at the degradation of TYK2 over JAKT/2/3 proteins”. In experiment [2], the “TYK2 Degradation (0.5 μM)” value is 50%, the “TYK2 Degradation (5 μM)” value came out at 90% and the “Reduction of TYK2 protein levels over a dose range (FIG. 1)” value (“Reduction … over a dose range (FIG. 1)” below) was “concentration-dependently reduced the TYK2 proteins levels; also recorded: reduce TYK2 protein levels in a concentration-dependent manner”.
Consider `CNC(=O)c1nnc(NC(=O)CNC(=O)CCCCCCCCC(=O)N[C@H](C(=O)N2C[C@H](O)C[C@H]2C(=O)NCc2ccc(-c3scnc3C)cc2)C(C)(C)C)cc1Nc1cccc(-c2ncn(C)n2)c1OC` [CPD-040, N1-((S)-1-((2S,4R)-4-hydroxy-2-((4-(4-methylthiazol-5-yl)benzyl)carbamoyl)pyrrolidin-1-yl)-3,3-dimethyl-1-oxobutan-2-yl)-N10-(2-((5-((2-methoxy-3-(1-methyl-1H-1,2,4-triazol-3-yl)phenyl)amino)-6-(methylcarbamoyl)pyridazin-3-yl)amino)-2-oxoethyl)decanediamide], for which the “Selectivity of TYK2 protein reduction” value in experiment [1] is “very selective at the reduction protein levels of TYK2 over JAK1, JAK2, and JAK3; also recorded: highly selective at the degradation of TYK2 over JAKT/2/3 proteins”. Further, in experiment [2], the “TYK2 Degradation (0.5 μM)” value is 60%, the “TYK2 Degradation (5 μM)” value was found to be 60% and the “Reduction … over a dose range (FIG. 1)” value is given as “concentration-dependently reduced the TYK2 proteins levels; also recorded: reduce TYK2 protein levels in a concentration-dependent manner”.
For `CNC(=O)c1nnc(Nc2ccc(C(=O)NCCCCCCCCNc3cccc4c3C(=O)N(C3CCC(=O)NC3=O)C4=O)cn2)cc1Nc1cccc(-c2ncn(C)n2)c1OC` (stereo not drawn) [CPD-158, 6-((5-((8-((2-(2,6-dioxopiperidin-3-yl)-1,3-dioxoisoindolin-4-yl)amino)octyl)carbamoyl)pyridin-2-yl)amino)-4-((2-methoxy-3-(1-methyl-1H-1,2,4-triazol-3-yl)phenyl)amino)-N-methylpyridazine-3-carboxamide], the “Phosphorylation of STAT1 (Tyr701) and STAT3 (Tyr705) induced by IFNα (FIG. 3)” value (“Phosphorylation of STAT1” below) in experiment [3] is “concentration-dependently reduced phosphorylation of STAT1 (Tyr701) and STAT3 (Tyr705) induced by IFNα treatment; also recorded: significantly decreased STAT1/3 phosphorylation downstream of IFNα stimulation”. Besides, in experiment [4], the “TYK2 Degradation (NOMO-1, 10 nM)” value is recorded as “A (A: ≥60% TYK2 degradation)”; the “TYK2 Degradation (NOMO-1, 100 nM)” value is “B (B: <60% TYK2 degradation, and >20% TYK2 degradation)”; the “Reduction of TYK2 protein levels over a dose range (FIG. 2)” value was “concentration-dependently reduced the TYK2 proteins levels; also recorded: highly potent in reducing TYK2 protein levels”. Also, the “TYK2 protein levels in Jurkat cells (FIG. 3)” value (from here on “TYK2 protein levels … (FIG. 3)”) in experiment [5] was “reduced levels of TYK2 proteins”.
On to `CNC(=O)c1nnc(NC(=O)CNC(=O)CCCCCCCC(=O)N[C@H](C(=O)N2C[C@H](O)C[C@H]2C(=O)NCc2ccc(-c3scnc3C)cc2)C(C)(C)C)cc1Nc1cccc(-c2ncn(C)n2)c1OC` [CPD-039, N1-((S)-1-((2S,4R)-4-hydroxy-2-((4-(4-methylthiazol-5-yl)benzyl)carbamoyl)pyrrolidin-1-yl)-3,3-dimethyl-1-oxobutan-2-yl)-N9-(2-((5-((2-methoxy-3-(1-methyl-1H-1,2,4-triazol-3-yl)phenyl)amino)-6-(methylcarbamoyl)pyridazin-3-yl)amino)-2-oxoethyl)nonanediamide], for which the “Selectivity of TYK2 protein reduction” value in experiment [1] is “very selective at the reduction protein levels of TYK2 over JAK1, JAK2, and JAK3; also recorded: highly selective at the degradation of TYK2 over JAKT/2/3 proteins”. Also, in experiment [2], the “TYK2 Degradation (0.5 μM)” value stood at 60%, the “TYK2 Degradation (5 μM)” value came to 90% and the “Reduction … over a dose range (FIG. 1)” value was “concentration-dependently reduced the TYK2 proteins levels; also recorded: reduce TYK2 protein levels in a concentration-dependent manner”.
With `CNC(=O)c1nnc(Nc2ccc(C(=O)NCCCCCNc3cccc4c3C(=O)N(C3CCC(=O)NC3=O)C4=O)cn2)cc1Nc1cccc(-c2ncn(C)n2)c1OC` (stereo not drawn) [CPD-155, 6-((5-((5-((2-(2,6-dioxopiperidin-3-yl)-1,3-dioxoisoindolin-4-yl)amino)pentyl)carbamoyl)pyridin-2-yl)amino)-4-((2-methoxy-3-(1-methyl-1H-1,2,4-triazol-3-yl)phenyl)amino)-N-methylpyridazine-3-carboxamide], the “Phosphorylation of STAT1” value in experiment [3] was “concentration-dependently reduced phosphorylation of STAT1 (Tyr701) and STAT3 (Tyr705) induced by IFNα treatment; also recorded: significantly decreased STAT1/3 phosphorylation downstream of IFNα stimulation”. In addition, in experiment [4], the “TYK2 Degradation (NOMO-1, 10 nM)” value is on record as “A (A: ≥60% TYK2 degradation)”; the “TYK2 Degradation (NOMO-1, 100 nM)” value is listed as “A (A: ≥60% TYK2 degradation)”; the “Reduction of TYK2 protein levels over a dose range (FIG. 2)” value is “concentration-dependently reduced the TYK2 proteins levels; also recorded: highly potent in reducing TYK2 protein levels”. For the same compound, the “TYK2 protein levels … (FIG. 3)” value in experiment [5] is on record as “reduced levels of TYK2 proteins”.
Regarding `CNC(=O)c1nnc(Nc2ccc(C(=O)NCCCCCNc3ccc4c(c3)C(=O)N(C3CCC(=O)NC3=O)C4=O)cn2)cc1Nc1cccc(-c2ncn(C)n2)c1OC` (stereo not drawn) [CPD-164, 6-((5-((5-((2-(2,6-dioxopiperidin-3-yl)-1,3-dioxoisoindolin-5-yl)amino)pentyl)carbamoyl)pyridin-2-yl)amino)-4-((2-methoxy-3-(1-methyl-1H-1,2,4-triazol-3-yl)phenyl)amino)-N-methylpyridazine-3-carboxamide], in experiment [3], the “Phosphorylation of STAT1” value is “concentration-dependently reduced phosphorylation of STAT1 (Tyr701) and STAT3 (Tyr705) induced by IFNα treatment; also recorded: significantly decreased STAT1/3 phosphorylation downstream of IFNα stimulation”. In experiment [4], the “TYK2 Degradation (NOMO-1, 10 nM)” value is “A (A: ≥60% TYK2 degradation)”; the “TYK2 Degradation (NOMO-1, 100 nM)” value was “B (B: <60% TYK2 degradation, and >20% TYK2 degradation)”. Besides, the “TYK2 protein levels … (FIG. 3)” value in experiment [5] is listed as “reduced levels of TYK2 proteins”.
For `CNC(=O)c1nnc(Nc2ccc(N3CCN(C4CCN(C(=O)CCC(=O)N[C@H](C(=O)N5C[C@H](O)C[C@H]5C(=O)N[C@@H](C)c5ccc(-c6scnc6C)cc5)C(C)(C)C)CC4)CC3)cn2)cc1Nc1cccc(-c2ncn(C)n2)c1OC` [CPD-145, 6-((5-(4-(1-(4-(((S)-1-((2S,4R)-4-Hydroxy-2-(((S)-1-(4-(4-methylthiazol-5-yl)phenyl)ethyl)carbamoyl)pyrrolidin-1-yl)-3,3-dimethyl-1-oxobutan-2-yl)amino)-4-oxobutanoyl)piperidin-4-yl)piperazin-1-yl)pyridin-2-yl)amino)-4-((2-methoxy-3-(1-methyl-1H-1,2,4-triazol-3-yl)phenyl)amino)-N-methylpyridazine-3-carboxamide], the “TYK2 Degradation (NOMO-1, 100 nM)” value in experiment [4] was “B (B: <60% TYK2 degradation, and >20% TYK2 degradation)”.
